Assay results reported in EP0176049A2, “Aminoalkylnaphtalene derivatives having pharmacological activities” (priority 1984, dated 1986).

Legend:
[1] = target: enzymes responsible for the enkephalins hydrolysis; test: inhibition of the enzymes responsible for the enkephalins hydrolysis; type: biochemical
mouse [2] = test: acute toxicity in the mouse; type: in vivo; settings: i.p. administration
mouse [3] = test: hot plate test (analgesic activity); type: in vivo
[4] = acute toxicity in the mouse; type: in vivo; settings: in vivo, ip, i.p. administration
rat = test: paw oedema by carrageenin according to Randall-Selitto (antiinflammatory activity); type: in vivo; settings: ip

Compound | IC50 [1] [mM] | LD50 (mouse [2]) | ED50 (mouse [3]; Mus musculus, route and species not restated for this value) [mg/kg] | kind of activity in the hot plate test (reversibility by naloxone) (mouse [3]; naloxone antagonism) | LD50 [4] [mg/kg] | ED50 (mouse [3]; ip, mouse, analgesic activity) [mg/kg] | ED50 (rat) [mg/kg]
2-(3-dimethylamino-l-t-butyl-l-hydroxypropyl)-6-methoxy- naphtalene [Example 3] | 5 | 120,96 ± 5,32. mg/kg i.p. | – | – | – | – | –
CCC(O)(c1ccc2cc(OC)ccc2c1)C(C)CN(C)C (stereo not drawn) [Example 1] | 4 | – | 13.5 | partially reversible by naloxone | 65.8 | – | –
CCC(O)(c1ccc2cc(O)ccc2c1)C(C)CN(C)C (stereo not drawn) [Example 2] | – | – | – | – | 56.2 | 5.6 ± 1.51 | 1.25
